In patent publication US6699849B1, “Cyclodextrin complexes of benzodiazepines” (Cyclops, ehf., priority 1998, dated 2004):

Columns and labels:
[1] = Effect of pH and cyclodextrins on the fraction of the open form (diazepine ring-opening) of benzodiazepines; type: physicochemical
Procedure: The cyclodextrin concentration was 10% (w/v) and the benzodiazepine concentration was 1×10^−4 M. The concentration of the closed form was determined immediately after dissolving the benzodiazepine in the aqueous cyclodextrin solution and again 24 hours later (i.e. after equilibration at 23° C.). Preliminary experiments had shown that equilibrium between the closed and the open form was attained within 3 hours at 23° C.

[2] = First-order rate constant of diazepine ring-closure (regeneration of the benzodiazepine); type: physicochemical; conditions: pH 7.5, 37° C.
Procedure: The effect of cyclodextrins and organic solvents on the rate of diazepine ring-closure of several selected benzodiazepines was investigated. Stock solutions containing 1.0×10^−3 M of the benzodiazepine in 0.10 M aqueous hydrochloric acid solution (pH approx. 1.1) were prepared and stored at 37.0° C. The benzodiazepines were in the ring-open form in these stock solutions. Aqueous 0.50 M tris buffer (pH 7.50) solution was prepared. The observed first-order rate constant for the closing (i.e. formation) of the benzodiazepine ring was determined in the following reaction media: a) pure aqueous tris buffer solution; b) aqueous tris buffer solution containing 10% (w/v) cyclodextrin; c) tris buffer solution containing 10% (w/v) cyclodextrin and 10% (v/v) ethanol (EtOH); d) tris buffer solution containing 10% (w/v) cyclodextrin and 50% (v/v) EtOH; e) tris buffer solution containing 10% (w/v) cyclodextrin and 10% (v/v) dimethylsulfoxide (DMSO); and f) tris buffer solution containing 10% (w/v) cyclodextrin and 50% (w/v) DMSO. The stock solution (30 μl) was added to 1.50 ml of the reaction media which had previously been equilibrated to 37.0° C. and the first-order rate constant for the appearance of the closed form determined from the appearance of the closed form as observed on HPLC. Tables 5, 6 and 7 show the effects of cyclodextrins, EtOH and DMSO on the observed first-order rate constant for the regeneration of alprazolam, triazolam and midazolam, respectively. In pure aqueous buffer solutions, addition of EtOH and DMSO decreases somewhat the rate of ring closure, at least in the case of alprazolam and midazolam. Addition of cyclodextrin or the organic solvents have insignificant effect on the pH under these conditions. The dielectric constant of the reaction medium will, however, decrease upon addition of the organic solvents. It is possible that this decrease in the dielectric constant will reduce the ability of the reaction media to stabilize the transition state which could explain the decrease in the observed rate constant. […] The cyclodextrins formed stable complexes with the ring-open form of the drug and, thus, the rate decreased upon addition of cyclodextrin. […] EtOH and DMSO will compete with the diazepine ring-open form for a space in the cyclodextrin cavity resulting in decreased complexation.

[3] = Flux of alprazolam through hairless mouse skin in Franz diffusion cells
Procedure: Female hairless mice were sacrificed by cervical dislocation and their full-thickness skins removed. […] The skin was placed in Franz diffusion cells. The receptor phase consisted of phosphate buffer saline pH 7.4. The skin diffusion cells were stirred with a magnetic bar and kept at 37° C. by circulating water through an external jacket. […] The samples were kept frozen until analyzed by HPLC. The flux was calculated from the linear part of each permeability profile and the permeability coefficient obtained by dividing the flux with the concentration of dissolved drug in the donor phase.

[4] = Transdermal delivery of enalaprilat from 10% (w/v) HPβCD solutions, effect of heating with polymers; type: in vitro ADME; conditions: for Flux Ratio (heated/un-heated): donor phase HPβCD, pH 5.0
Excerpt: It is possible to enhance the cyclodextrin (CD) complexation efficacy, or efficiency, of drugs (D), and other “guest” molecules, by either increasing the apparent stability constant (KC) of the drug-cyclodextrin complex (D-CD) or increasing the apparent intrinsic solubility (S0) of the drug. For example, KC can be increased by addition of water-soluble polymers to the aqueous complexation media and S0 can be increased by ionization of the drug molecule, as described previously. […] On the other hand, if the drug-cyclodextrin complexes are prepared under conditions which ensure enhanced complexation and if the complexation efficiency decreases upon administration, then enhanced drug availability will be observed. Thus, the present invention involves: i) enhancement of the complexation efficiency and ii) reduction of the complexation efficiency after administration. For example, it is possible to enhance the complexation efficiency of many ionizable drugs by preparing the complexes at a pH where the drug is ionized but obtain decreased efficiency upon administration due to pH changes and consequent decreased ionization. One example of such a drug is phenytoin (pKa 8.1). […] However, if the pH 8.0 solution was placed in an environment which would decrease the pH from 8 to 5 (e.g. topical application to the skin), then a supersaturated solution would be formed which would result in enhanced drug availability (e.g. it would result in enhanced transdermal drug delivery). Other means to enhance S0 include reversible derivation (e.g. prodrug formation) of the guest molecule and addition of certain low molecular weight acids. The value of KC can, for example, be increased by addition of certain low molecular weight acids, by addition of water-soluble polymers to the aqueous complexation media or by using mixed solvent systems such as aqueous 10% (v/v) acetic acid. […] The effect of the polymers on the transdermal delivery of enalaprilat can, at least partly, be explained by decreased complexation efficiency (i.e. decrease in KC) at the skin surface.

[5] = 10% (w/v) HPβCD, pH 2, approx. 23° C.
[6] = 10% (w/v) HPβCD, pH 3, approx. 23° C.
[7] = 10% (w/v) HPβCD, pH 4, approx. 23° C.
[8] = 10% (w/v) SBEβCD, pH 2, approx. 23° C.
[9] = 10% (w/v) SBEβCD, pH 3, approx. 23° C.
[10] = 10% (w/v) SBEβCD, pH 4, approx. 23° C.
[11] = 10% (w/v) αCD, pH 2, approx. 23° C.
[12] = 10% (w/v) αCD, pH 3, approx. 23° C.
[13] = 10% (w/v) αCD, pH 4, approx. 23° C.
[14] = 10% (w/v) γCD, pH 2, approx. 23° C.
[15] = 10% (w/v) γCD, pH 3, approx. 23° C.
[16] = 10% (w/v) γCD, pH 4, approx. 23° C.
[17] = no cyclodextrin, pH 2, approx. 23° C.
[18] = no cyclodextrin, pH 3, approx. 23° C.
[19] = no cyclodextrin, pH 4, approx. 23° C.

Compound | Fraction open [1, 5] | Fraction open [1, 6] | Fraction open [1, 7] | Fraction open [1, 8] | Fraction open [1, 9] | Fraction open [1, 10] | Fraction open [1, 11] | Fraction open [1, 12] | Fraction open [1, 13] | Fraction open [1, 14] | Fraction open [1, 15] | Fraction open [1, 16] | Fraction open [1, 17] | Fraction open [1, 18] | Fraction open [1, 19] | observed first-order rate constant, ring formation ([2]; 10% HPβCD, 10% DMSO) [min⁻¹] | observed first-order rate constant, ring formation ([2]; 10% HPβCD, 10% EtOH) [min⁻¹] | observed first-order rate constant, ring formation ([2]; 10% HPβCD, 50% DMSO) [min⁻¹] | observed first-order rate constant, ring formation ([2]; 10% HPβCD, 50% EtOH) [min⁻¹] | observed first-order rate constant, ring formation ([2]; 10% HPβCD, pure water) [min⁻¹] | further results
Cc1nnc2n1-c1ccc(Cl)cc1C(c1ccccc1)=NC2 [alprazolam, 8-chloro-1-methyl-6-phenyl-4H-s-triazolo[4,3-a][1,4]benzodiazepine] | 0.89 | 0.60 | 0.23 | 0.96 | 0.84 | 0.33 | 0.94 | 0.79 | 0.25 | 0.81 | 0.41 | 0.42 | 0.82 | 0.56 | 0.33 | 444 | 523 | 857 | 707 | 330 | share of drug in the open form ([1]; aqueous HPβCD solution, pH 3): about 60%; observed first-order rate constant, ring formation ([2]; 10% RMβCD, 10% DMSO): 397 min⁻¹; observed first-order rate constant, ring formation ([2]; 10% RMβCD, 10% EtOH): 490 min⁻¹; observed first-order rate constant, ring formation ([2]; 10% RMβCD, 50% DMSO): 792 min⁻¹; observed first-order rate constant, ring formation ([2]; 10% RMβCD, 50% EtOH): 670 min⁻¹; observed first-order rate constant, ring formation ([2]; 10% RMβCD, pure water): 297 min⁻¹; observed first-order rate constant, ring formation ([2]; 10% SBEβCD, 10% EtOH): 518 min⁻¹; observed first-order rate constant, ring formation ([2]; 10% SBEβCD, 50% DMSO): 936 min⁻¹; observed first-order rate constant, ring formation ([2]; 10% SBEβCD, 50% EtOH): 582 min⁻¹; observed first-order rate constant, ring formation ([2]; 10% SBEβCD, pure water): 311 min⁻¹; observed first-order rate constant, ring formation ([2]; No CD, 10% DMSO): 968 min⁻¹; observed first-order rate constant, ring formation ([2]; No CD, 10% EtOH): 1150 min⁻¹; observed first-order rate constant, ring formation ([2]; No CD, 50% DMSO): 1070 min⁻¹; observed first-order rate constant, ring formation ([2]; No CD, 50% EtOH): 724 min⁻¹; observed first-order rate constant, ring formation ([2]; No CD, pure water): 1420 min⁻¹; alprazolam concentration in the donor phase (saturated) ([3]; aqueous 7% (w/v) SBEβCD, pH 3.3): 1.85 mg/mL; Flux ([3]; donor 7% (w/v) SBEβCD pH 3.3, without increasing the pH): 3.91 × 10^−4 mg/cm^2/h; Flux ([3]; donor 7% (w/v) SBEβCD, increasing the pH from 3.3 to 4.1): 4.56 × 10^−4 mg/cm^2/h; Flux Ratio ([3]; increasing the pH from 3.3 to 4.1): 1.2; Flux Ratio ([3]; without increasing the pH): 1.0
Cc1nnc2n1-c1ccc(Cl)cc1C(c1ccccc1Cl)=NC2 [triazolam, 8-chloro-6-(o-chlorophenyl)-1-methyl-4H-s-triazolo[4,3-a][1,4]benzodiazepine] | 0.51 | 0.09 | 0.00 | 0.71 | 0.25 | 0.00 | 0.75 | 0.23 | 0.00 | 0.33 | 0.01 | 0.00 | 0.53 | 0.08 | 0.00 | 0.0079 | 0.0092 | 0.0114 | 0.0102 | 0.0066 | observed first-order rate constant, ring formation ([2]; 10% RMβCD, 10% DMSO): 0.0078 min⁻¹; observed first-order rate constant, ring formation ([2]; 10% RMβCD, 10% EtOH): 0.0092 min⁻¹; observed first-order rate constant, ring formation ([2]; 10% RMβCD, 50% DMSO): 0.0112 min⁻¹; observed first-order rate constant, ring formation ([2]; 10% RMβCD, 50% EtOH): 0.01 min⁻¹; observed first-order rate constant, ring formation ([2]; 10% RMβCD, pure water): 0.0064 min⁻¹; observed first-order rate constant, ring formation ([2]; 10% SBEβCD, 10% DMSO): 0.0073 min⁻¹; observed first-order rate constant, ring formation ([2]; 10% SBEβCD, 10% EtOH): 0.0082 min⁻¹; observed first-order rate constant, ring formation ([2]; 10% SBEβCD, 50% DMSO): 0.0113 min⁻¹; observed first-order rate constant, ring formation ([2]; 10% SBEβCD, 50% EtOH): 0.0097 min⁻¹; observed first-order rate constant, ring formation ([2]; 10% SBEβCD, pure water): 0.0058 min⁻¹; observed first-order rate constant, ring formation ([2]; No CD, 10% DMSO): 0.0128 min⁻¹; observed first-order rate constant, ring formation ([2]; No CD, 10% EtOH): 0.0131 min⁻¹; observed first-order rate constant, ring formation ([2]; No CD, 50% DMSO): 0.0137 min⁻¹; observed first-order rate constant, ring formation ([2]; No CD, 50% EtOH): 0.0184 min⁻¹; observed first-order rate constant, ring formation ([2]; No CD, pure water): 0.0132 min⁻¹
CN1C(=O)CN=C(c2ccccc2)c2cc(Cl)ccc21 [Diazepam] | 0.65 | 0.29 | 0.15 | 0.63 | 0.56 | 0.22 | 0.67 | 0.51 | 0.13 | 0.41 | 0.17 | 0.13 | 0.30 | 0.23 | 0.15 |  |  |  |  |  | 
C[C@H](N[C@@H](CCc1ccccc1)C(=O)O)C(=O)N1CCC[C@H]1C(=O)O [enalaprilat] |  |  |  |  |  |  |  |  |  |  |  |  |  |  |  |  |  |  |  |  | Flux Ratio (heated/un-heated) ([4]; 0.10% HPMC): 2.6; Flux Ratio (heated/un-heated) ([4]; 0.25% PVP): 1.4; effect of polymers on transdermal delivery ([4]; polymers added to unheated vehicles): did not enhance; effect of polymers on transdermal delivery ([4]; vehicles heated after addition of the polymers): significant enhancement
